A short description of one data set: Kinetic solubility assay. Format: physicochemical. The settings on record: kinetic solubility, 50 mM PB (pH 7.4), shaken 24 hours at RT. A digest of the protocol:
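Concentration in the filtrate was determined by UPLC-UV or HPLC-UV with a standard curve. Before that, compound (10 mM DMSO stock) in 50 mM PB at pH 7.4 was agitated 24 h at room temperature, then PTFE-filtered with centrifugation.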

Another data set deals with T1, wtKIT (Homo sapiens, UniProt P10721).
T1 construct: 1888289AM in the reaction mixtures
As to the kind of experiment: Caliper biochemical assay, wtKIT. The settings on record: Table 6, read-out: KIT Biochemical IC50 avg. Here is the method:
Enzyme, substrate, and cofactors (ATP and Mn^2+) are combined in a well of a microtiter plate and incubated for 3 hours at 25° C. At the end of the incubation, the reaction is quenched by the addition of an EDTA-containing buffer. Substrate and product are separated electrophoretically using the microfluidic-based LabChip 3000 Drug Discovery System from Caliper Life Sciences* and quantitated by fluorescence intensity.
The substrate used in the CSF-1R and PDGFRα assay is FAM-[…]-CONH2 (FAM is carboxyfluorescein). Peptide should be >95% purity. The substrate for the KIT assay is FAM-[…]-NH2.
• 1. To a well of a 384-well plate add 5 μL of 2× enzyme buffer (or control) • 2. Add 100 nL of 100× compound. • 3. Add 5 μL of 2× substrate buffer. • 4. Incubate plate at 25° C. for 3 hours. • 5. Add 10 uL of […]. • 6. Read plate LabChip 3000 Drug Discovery System
• 3 hours at 25° C. where 100% Inhibitor: No enzyme.
• 100 mM HEPES, pH 7.5 0.1% BSA • 0.01% Triton X-100 • 1 mM DTT • 10 mM MnCl2 • 10 μM Sodium Orthovanadate • 10 μM Beta-Glycerophosphate • 400 μM ATP • 1% DMSO (from compound) • 1 μM FAM-[…]-CONH2 5.0 nM wtKIT Enzyme (1888289AM)* • *Specific activity may vary from lot to lot. Enzyme concentration may need to be adjusted to yield 10-20% conversion of substrate to product.

Data set [1] addresses T2, BCRP (BCRP-MDCKII monolayer) (Homo sapiens, UniProt Q9UNQ0).
T2 construct: host or cells: MDCKII (canine kidney) cells
T2 sequence (Q9UNQ0 1-655): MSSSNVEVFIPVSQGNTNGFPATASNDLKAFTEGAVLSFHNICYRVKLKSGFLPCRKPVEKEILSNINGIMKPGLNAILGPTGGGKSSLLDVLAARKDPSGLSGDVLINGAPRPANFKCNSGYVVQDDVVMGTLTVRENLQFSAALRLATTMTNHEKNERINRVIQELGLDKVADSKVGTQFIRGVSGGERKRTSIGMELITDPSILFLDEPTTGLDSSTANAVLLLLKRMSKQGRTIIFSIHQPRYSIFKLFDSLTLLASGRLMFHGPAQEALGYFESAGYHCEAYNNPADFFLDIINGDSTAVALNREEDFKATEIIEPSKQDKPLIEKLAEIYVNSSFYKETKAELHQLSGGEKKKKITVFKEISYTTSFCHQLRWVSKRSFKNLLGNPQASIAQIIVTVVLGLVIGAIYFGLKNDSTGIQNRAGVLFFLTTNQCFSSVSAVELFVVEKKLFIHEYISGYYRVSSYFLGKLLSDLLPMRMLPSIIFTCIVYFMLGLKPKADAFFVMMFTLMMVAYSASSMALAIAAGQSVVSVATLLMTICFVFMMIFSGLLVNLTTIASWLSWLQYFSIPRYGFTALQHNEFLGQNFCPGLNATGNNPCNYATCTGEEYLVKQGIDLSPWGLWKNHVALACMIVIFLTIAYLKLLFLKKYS
As to the kind of experiment: MDCKII-BCRP bidirectional transport assay. Format: in vitro ADME. The settings on record: for MDCK-BCRP: Papp A-B: apical to basolateral. The procedure: Exemplary compounds were tested for cell permeability in Caco-2, MDCKII-MDR1 and MDCKII-BCRP cell lines with efflux transporter engagement inferred from the efflux ratios determined. Procedures and results are described below. […] This feature of certain compounds is in part due to efflux transporter engagement. See, for instance, exemplary such compounds included in data tables below.
The reference compound Teriflunomide and test compounds are tested in the bidirectional assay. Test compound and reference compounds incubations were tested in duplicates.
The transport assay can be performed between days 12 to day 15 using ready to use PreadyPort™ BCRP-MDCKII monolayer in 96 well plate.
The medium was aspirated from the apical and basal compartments and 75 and 235 μL assay buffer was added to each of the 96 wells of apical and basal compartments of the PreadyPort™ plate.
The plates were pre-incubated for 15 min at 37° C. with 5% CO2 in humidified atmosphere. After preincubation the assay buffer was removed from the apical and basal inserts of the plate.
In apical to basolateral (A→B) transport, 75 μL of test or reference compound working solution to apical inserts and 235 μL of blank assay buffer were added to the corresponding basal compartments.
In basolateral to apical transport, 235 μL of test or reference compound working solution to the basal compartments and 75 μL of blank assay buffer solution were added to corresponding apical inserts.
The sandwich plate was incubated for 120 min in incubator at 5% CO2 and 37° C.
After incubation, 60 μL was transferred from receiver and donor compartments to collection plate.
For donor and C0 samples 20-fold dilution was accomplished by mixing 60 μL of collected sample with 1140 μL of transport buffer and from that solution aliquot 60 μL transfer Both receiver and donor samples were processed by adding […] of acetonitrile containing internal standard (60 μL of sample+240 μL of acetonitrile containing glyburide as internal standard, 125 ng/mL) and vortexing the samples. The compound concentration was measured in all samples using respective calibration standards by LC-MS/MS.
Calculate the Papp and recovery using the given formula:
[formula] [formula] • Where: dQ/dt=Permeability rate in μM/see • C0=Initial concentration in μM • A=Membrane surface area (0.33 cm^2) • V=Volume of receiver chamber • Cend, a=concentration in acceptor well at end of incubation • Cend, d=concentration in donor well at end of incubation • CHBSS=loading concentration measured in HBSS

Data on 17 molecules can be found in patent US20240254119A1 (THIRD HARMONIC BIO, INC., priority 2022, published 2024).

Usually IC50 stands for the midpoint of a concentration-inhibition curve.

T1 sequence (P10721 26-976): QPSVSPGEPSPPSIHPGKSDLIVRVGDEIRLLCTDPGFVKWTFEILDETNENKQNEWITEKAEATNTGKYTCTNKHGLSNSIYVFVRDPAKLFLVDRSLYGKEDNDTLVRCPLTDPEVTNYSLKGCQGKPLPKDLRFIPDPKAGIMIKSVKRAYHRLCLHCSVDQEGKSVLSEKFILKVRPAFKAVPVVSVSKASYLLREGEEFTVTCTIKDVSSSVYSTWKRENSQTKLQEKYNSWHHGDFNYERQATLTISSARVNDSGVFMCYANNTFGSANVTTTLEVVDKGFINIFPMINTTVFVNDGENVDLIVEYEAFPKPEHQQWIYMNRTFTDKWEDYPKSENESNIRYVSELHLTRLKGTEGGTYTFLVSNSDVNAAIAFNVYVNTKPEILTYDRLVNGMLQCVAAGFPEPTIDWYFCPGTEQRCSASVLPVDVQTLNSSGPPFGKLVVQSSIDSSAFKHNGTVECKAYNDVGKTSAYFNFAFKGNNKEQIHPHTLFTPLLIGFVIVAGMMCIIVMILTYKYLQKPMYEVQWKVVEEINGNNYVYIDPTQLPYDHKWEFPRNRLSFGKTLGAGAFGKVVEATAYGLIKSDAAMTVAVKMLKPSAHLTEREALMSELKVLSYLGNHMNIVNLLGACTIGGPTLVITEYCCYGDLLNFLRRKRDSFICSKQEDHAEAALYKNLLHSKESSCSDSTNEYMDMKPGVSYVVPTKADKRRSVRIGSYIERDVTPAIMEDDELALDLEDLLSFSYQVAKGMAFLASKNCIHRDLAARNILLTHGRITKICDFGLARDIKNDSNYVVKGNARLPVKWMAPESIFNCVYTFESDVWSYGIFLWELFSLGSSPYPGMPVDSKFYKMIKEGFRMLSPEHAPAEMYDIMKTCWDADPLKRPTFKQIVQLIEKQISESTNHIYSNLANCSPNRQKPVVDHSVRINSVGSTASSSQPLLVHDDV

For the molecule `Cc1ccc(-c2noc(C3CN(C(N)=O)C3)n2)cc1NC(=O)c1cnc2ccccn12` [Compound I-268], in the data set “Kinetic solubility assay”, the “Solubility (μM)” value was “* (a solubility greater than 50 μM)”. In addition, the IC50 on wtKIT fell in the range of 50 to 500 nM. Further, in data set [1], the “MDCK-BCRP: Efflux Ratio” value was 11.6 and the “MDCK-BCRP: Papp A-B” value is 0.31 10^−6 cm/s.
For `Cc1ccc(-c2noc(C3CC(O)(c4ccccc4)C3)n2)cc1NC(=O)c1cnc2ccccn12` (centres unmarked) [Compound I-349], in that order: “**** (a solubility less than or equal to 2 μM)”, not above 50 nM, 2.56 and 16.6 10^−6 cm/s.
As for `COC(=O)C1CC(c2nc(-c3ccc(C)c(NC(=O)c4cnc5ccccn45)c3)no2)C1` (centres unmarked) [Compound I-342], the “Solubility (μM)” value in “Kinetic solubility assay” was “*** (a solubility greater than 2 μM and less than or equal to 10 μM)”. Moreover, the IC50 on wtKIT was not above 50 nM. Besides, in data set [1], the “MDCK-BCRP: Efflux Ratio” value is on record as 0.47 and the “MDCK-BCRP: Papp A-B” value is reported as 30 10^−6 cm/s.
With `Cc1ccc(-c2noc([C@H]3CCN(C(=O)OC(C)(C)C)C3)n2)cc1NC(=O)c1cnc2ccccn12` [Compound I-398], in “Kinetic solubility assay”, the “Solubility (μM)” value is “*** (a solubility greater than 2 μM and less than or equal to 10 μM)”. The IC50 on wtKIT is 50 to 500 nM. For the same molecule, in data set [1], the “MDCK-BCRP: Efflux Ratio” value was determined as 1.33 and the “MDCK-BCRP: Papp A-B” value is 20.3 10^−6 cm/s.
Take `Cc1ccc(-c2noc(C3CCN(C(=O)OC(C)(C)C)C3)n2)cc1NC(=O)c1cnc2ccccn12` (racemic) [Compound I-399]: in “Kinetic solubility assay”, the “Solubility (μM)” value is “*** (a solubility greater than 2 μM and less than or equal to 10 μM)”. At wtKIT, the IC50 was in the range of 50 to 500 nM. Also, in data set [1], the “MDCK-BCRP: Efflux Ratio” value is reported as 2.78 and the “MDCK-BCRP: Papp A-B” value is 6.48 10^−6 cm/s.
As for `Cc1ccc(-c2noc(C3CCCN3)n2)cc1NC(=O)c1cnc2ccccn12` (racemic) [Compound I-391], the “Solubility (μM)” value in the data set “Kinetic solubility assay” is “* (a solubility greater than 50 μM)”. At wtKIT, the IC50 is not above 50 nM. For the same molecule, in data set [1], the “MDCK-BCRP: Efflux Ratio” value is on record as 12.1 and the “MDCK-BCRP: Papp A-B” value is recorded as 2.13 10^−6 cm/s.
The matching figures for `COCC1(c2nc(-c3ccc(C)c(NC(=O)c4cnc5ccccn45)c3)no2)CC(F)(F)C1` [Compound I-378]: “**** (a solubility less than or equal to 2 μM)”, not above 50 nM, 0.77 and 16 10^−6 cm/s.
As for `Cc1ccc(-c2noc(C3CCCCO3)n2)cc1NC(=O)c1cnc2ccccn12` (racemic) [Compound I-397], the “Solubility (μM)” value in the data set “Kinetic solubility assay” was “*** (a solubility greater than 2 μM and less than or equal to 10 μM)”. Further, the IC50 at wtKIT is not above 50 nM. Moreover, in data set [1], the “MDCK-BCRP: Efflux Ratio” value was determined as 2.83 and the “MDCK-BCRP: Papp A-B” value is reported as 8.04 10^−6 cm/s.
On to `COC(=O)N1CC(c2nc(-c3ccc(Br)c(NC(=O)c4cnc5ccccn45)c3)no2)C1` [Compound I-338], for which the “Solubility (μM)” value in “Kinetic solubility assay” is “**** (a solubility less than or equal to 2 μM)”. For the same molecule, the IC50 on wtKIT was not above 50 nM. In data set [1], the “MDCK-BCRP: Efflux Ratio” value came to 0.82 and the “MDCK-BCRP: Papp A-B” value was 23.1 10^−6 cm/s.
As for `Cc1ccc(-c2noc(C3CC4(COCCO4)C3)n2)cc1NC(=O)c1cnc2ccccn12` (centres unmarked) [Compound I-343], the “Solubility (μM)” value in “Kinetic solubility assay” was “** (a solubility greater than 10 μM and less than or equal to 50 μM)”. The IC50 on wtKIT is not above 50 nM. For the same molecule, in data set [1], the “MDCK-BCRP: Efflux Ratio” value is recorded as 2.36 and the “MDCK-BCRP: Papp A-B” value is given as 8.04 10^−6 cm/s.
Consider `Cc1ccc(-c2noc(C3CC(O)(C4(O)CCC4)C3)n2)cc1NC(=O)c1cnc2ccccn12` (centres unmarked) [Compound I-357], for which the “Solubility (μM)” value in “Kinetic solubility assay” was “*** (a solubility greater than 2 μM and less than or equal to 10 μM)”. At wtKIT, the IC50 is 50 to 500 nM. Moreover, in data set [1], the “MDCK-BCRP: Efflux Ratio” value is 63.9 and the “MDCK-BCRP: Papp A-B” value is on record as 0.47 10^−6 cm/s.
For the molecule `COC1(OC)CC(c2nc(-c3ccc(C)c(NC(=O)c4cnc5ccccn45)c3)no2)C1` [Compound I-346], in the data set “Kinetic solubility assay”, the “Solubility (μM)” value is “*** (a solubility greater than 2 μM and less than or equal to 10 μM)”. The IC50 at wtKIT is not above 50 nM. Moreover, in data set [1], the “MDCK-BCRP: Efflux Ratio” value came to 1.33 and the “MDCK-BCRP: Papp A-B” value is listed as 40.1 10^−6 cm/s.
On to `CSCC1(c2nc(-c3ccc(C)c(NC(=O)c4cnc5ccccn45)c3)no2)CC(F)(F)C1` [Compound I-354], for which the “Solubility (μM)” value in “Kinetic solubility assay” is given as “**** (a solubility less than or equal to 2 μM)”. Besides, the IC50 at wtKIT is not above 50 nM. In data set [1], the “MDCK-BCRP: Efflux Ratio” value is reported as 1.03 and the “MDCK-BCRP: Papp A-B” value is recorded as 7.97 10^−6 cm/s.
The matching figures for `COC(=O)C1CC(c2nc(-c3ccc(C)c(NC(=O)c4cnc5ccccn45)c3)no2)C1` (centres unmarked) [Compound I-366]: “**** (a solubility less than or equal to 2 μM)”, not above 50 nM, 1.31 and 10.2 10^−6 cm/s.
With `Cc1ccc(-c2noc([C@H]3C[C@@H]3F)n2)cc1NC(=O)c1cnc2cc(Nc3c(C)cccc3C)ccn12` [Compound I-293], the “Solubility (μM)” value in “Kinetic solubility assay” is “*** (a solubility greater than 2 μM and less than or equal to 10 μM)”. Further, the IC50 on wtKIT lay within 50 to 500 nM. In data set [1], the “MDCK-BCRP: Efflux Ratio” value was 4.55 and the “MDCK-BCRP: Papp A-B” value was 0.02 10^−6 cm/s.
For the molecule `CCOC1CC(c2nc(-c3ccc(C)c(NC(=O)c4cnc5ccccn45)c3)no2)C1` (centres unmarked) [Compound I-310], the “Solubility (μM)” value in the data set “Kinetic solubility assay” is listed as “**** (a solubility less than or equal to 2 μM)”. The IC50 at wtKIT lay within 50 to 500 nM. Further, in data set [1], the “MDCK-BCRP: Efflux Ratio” value was found to be 0.81 and the “MDCK-BCRP: Papp A-B” value was 12 10^−6 cm/s.
Turning to `COC1(OC)CCC1c1nc(-c2ccc(C)c(NC(=O)c3cnc4ccccn34)c2)no1` (racemic) [Compound I-308], the “Solubility (μM)” value in “Kinetic solubility assay” was “*** (a solubility greater than 2 μM and less than or equal to 10 μM)”. For the same molecule, the half-maximal inhibitory concentration (IC50) on wtKIT is not above 50 nM. Besides, in data set [1], the “MDCK-BCRP: Efflux Ratio” value is recorded as 1.13 and the “MDCK-BCRP: Papp A-B” value is listed as 16.3 10^−6 cm/s.
